Results taken from a melting point compilation (Tetko et al.; mined from patent text by program, amines drawn as free bases though some values may be those of a salt).

| SMILES | melting point [°C] |
| --- | --- |
| CCc1cn(C2CC(O)C(CSCc3ccccc3)O2)c(=O)[nH]c1=O (stereo not given) | 149 to 151 |
| COc1ccc(C(=O)Nc2cccnc2)cc1NC(=S)Nc1cccc(C(=O)O)c1 | 191 to 192 |
| CCOc1c(C#CCO)cc(C(C)(C)C)cc1C(C)(C)C | 82 to 84 |
| CCOC(=O)COc1c2ccccc2cc2c1c(C(=O)C(N)=O)c(CC)n2Cc1ccccc1 | 130 to 131 |
| CCOC(=O)c1cnc2sc3c(n12)CCCCC3 | 73 to 74 |
| NC(=O)c1nn(-c2ccc(S(N)(=O)=O)cc2)c2c1CSc1ccccc1-2 | 211 to 213 |
| COc1ccc(C2CC(C(C)(C)C)=NN2c2ccc(C(=O)O)cc2)c(OC)c1 (stereo not given) | 214 |
| CC(=O)CC(=O)OCCCOC(=O)c1ccc(OCCn2ccnc2)cc1 | 49.5 to 51.5 |
| O[C@@H]1CN(CCc2ccccc2)CC[C@H]1c1ccccc1 (relative stereo) | 115 to 119 |
| CC(=O)Nc1c(C(=O)c2cnccn2)[nH]c2cc(Cl)ccc12 | 269 to 271 |
| CNC(=S)NS(=O)(=O)c1cc(CCNC(=O)/C=C/c2cccs2)ccc1OCCOC | 140 |
| CCn1nnc(NC(=O)C2c3ccccc3COc3ccccc32)n1 (racemic) | 158 to 159 |
| COc1ccc(C2SCc3c(sc(N)c3C(=O)c3cccs3)S2)cc1 (stereo not given) | 138 to 140 |
| CCc1cnc2c(NC(=O)c3c(Cl)cccc3Cl)cccc2c1CCC(N)=O | 235 to 236 |
| Cn1nc(-c2cc(C(=O)O)c(Cl)cc2Cl)c(Cl)c1OC(F)F | 159 to 160 |
| COC(=O)C1CCN2C(=O)C(=O)c3cc(Cl)cc1c32 (stereo not given) | 132 to 133 |
| CC(C)(C)c1ccc2oc(C(O)COc3ccc(C(=O)O)cc3)cc2c1 (stereo not given) | 175 to 177 |
| O=C1CCC(c2ccccc2)(c2ccccc2)C(C[N+](=O)[O-])C1 (racemic) | 164 |
| Cc1ccccc1C(=O)c1cccn1C | 90 to 92.5 |
| CCCc1c(C(=O)NC2CC2)nnn1-c1ccc(C(=O)NCC)cc1O | 203 |
| COC(=O)c1ccc2c(-c3cccc(OC)c3)nc(=O)n(C(C)C)c2c1 | 164 to 167 |
| COc1ccc2c(c1)c(CC(=O)OCc1cccnc1)c(C)n2C(=O)c1ccc(Cl)cc1 | 116 to 118 |
| CC(C)(C)n1ncc(N)c(Cl)c1=O | 194 to 198 |
| C=CCc1c(F)c(F)c(NN)c(F)c1F | 79 to 81 |
| COc1cc(NC(=O)Nc2ccc3c(c2)CCN(C(=O)Nc2ccc(OCCO)cc2Cl)C3)cc(OC)c1 | 105 to 110 |

| SMILES | melting point [°C] |
| --- | --- |
| CN(C)C(=O)N1CCC(c2nn(-c3ccc(C(F)(F)F)cc3)c3ccccc23)CC1 | 117 to 119 |
| N#Cc1ccc2nc(C(=O)NCc3ccnc(OCC4CCOC4)c3)[nH]c(=O)c2c1 (stereo not given) | 230 to 233 |
| CNC(=O)C(C)NC(=O)OC(C)(C)C (stereo not given) | 117 to 118 |
| COC(=O)c1c(N)ncn1C1c2ccccc2CC2CCCCC21 (stereo not given) | 155 to 159 |
| CN1CCN(CC/C=C/c2cc3c(Nc4ccc5[nH]ccc5c4)c(C#N)cnc3s2)CC1 | 220 |
| O=[N+]([O-])c1ccc(NCCC23CCCN2CCC3)c2ccccc12 | 90 to 91 |
| CCCCCCCCCCCCCc1c(C(F)(F)F)noc1NS(=O)(=O)c1ccccc1 | 89 |
| CC(C)NCC(O)COc1cccc(-c2oc3ccccc3c2C(=O)c2ccc(Cl)cc2)c1 (stereo not given) | 53 to 60 |
| Cc1ccc2nc(N3CCN(c4ncccc4C(F)(F)F)CC3)[nH]c2c1 | 216 to 217 |
| OCC1Cc2cccc(F)c2OC1CO (stereo not given) | 111 |
| C[Si](C)(C)c1ccc(N)cc1 | 123 to 124 |
| Cc1nc2c3c(c(C(=O)N(C)CCO)cc2n1C)CCC1(Cc2ccccc2C1)N3 | 194 to 195 |
| CCCCOc1ncc(C(C)=O)cc1-c1nc2c(CC)n(C3CCN(C(=O)OC(C)(C)C)CC3)nc2c(=O)[nH]1 | 194 to 195 |
| O=c1nc(-c2ccc(CO)cn2)sc2ccccc12 | 247 to 248 |
| CC(C#Cc1cccc(C2=NOC(c3ccc(F)cc3)C2)c1)N(O)C(N)=O (stereo not given) | 132 to 133 |
| Cc1cc2c(s1)C(C(=O)Nc1ccccc1)C(=O)N(C)S2(=O)=O (stereo not given) | 182 to 184 |
| CCOc1nn(-c2ccc(C(F)(F)F)cc2)cc1CCCOc1ccc(CCC(=O)O)cc1OC | 125 to 126 |
| COc1nc(Cc2ccccc2[N+](=O)[O-])nc(OC)n1 | 91.6 to 92.3 |
| CC1(C)CCC(C)(C)c2cc(-c3cc(-c4ccc(C(=O)O)cc4)ccc3CCCO)ccc21 | 203 |
| CCCCSc1cc(N)c([N+](=O)[O-])cc1N | 129 |
| O=C(C=Cc1cccc(F)c1)C=Cc1cccc(F)c1 | 96 to 97 |
| Cc1cc(C)nc(N(C#N)c2ccccc2)n1 | 153 to 154 |
| O=[N+]([O-])c1cc(N=Nc2ccc(S(=O)(=O)F)cc2)cc(Cl)c1O | 129 to 133 |
| O=C1CC2(CN1)CC(=O)c1cc(Cl)ccc12 (stereo not given) | 220 to 222 |
| COc1ccc2c(c1)CCC1C2=CCC2(C)C(O)CCC12 (stereo not given) | 95 to 97 |

| SMILES | melting point [°C] |
| --- | --- |
| CNC(=O)C(CCn1c(COc2ccc(Cl)cc2)nc2c(C)cccc21)Cc1ccccc1 (stereo not given) | 169 to 170 |
| CNc1c(NCCCCc2ncc(Br)cc2C)c(=O)c1=O | 190 to 191 |
| C=CCNC(=O)c1ccc([N+](=O)[O-])cc1Br | 98 to 100 |
| COC(=O)C(=Cc1cc(OC)c(OC)cc1Br)c1ccccc1C(=O)OC | 117 to 119 |
| COc1cc2c(cc1Nc1ncc(Cl)c(Nc3ccccc3S(=O)(=O)N(C)C)n1)CCN(Cc1nccn1C)CC2 | 79 to 86 |
| Cc1cc(=O)[nH]c2c1C(=O)CC(c1ccccc1Cl)C2 (stereo not given) | 290 to 291 |
| CCc1cc(N)cc(CC)n1 | 133 to 137 |
| COC(=O)COc1ccc(NC(=O)CCCCCOCc2ccccc2)cc1 | 64.6 to 67 |
| O=C1OCC(c2ccccc2)N1CC1C2CCC(O2)C1CO (stereo not given) | 131 to 133 |
| Cc1ccc2c(c1)c(=O)c1c(cnn1C)n2CCCl | 116 to 119 |
| Nc1ccc2c(c1)Cc1c(-c3ccccc3)n[nH]c1-2 | 228 to 230 |
| O=Cc1ccn(C2=CC3=C(CC2)CCc2[nH]c(=O)c(=O)[nH]c23)c1 | > 250 |
| COc1cc(-c2ccc(O)c(C3(C)CCCCC3)c2)cc(CC2SC(N3CCOCC3)=NC2=O)c1O (stereo not given) | 221 to 223 |
| O=C1OCCC1NC(c1ccccc1)(c1ccccc1)c1ccccc1 (stereo not given) | 164 to 166 |
| CC(C)c1cnn2c(O)cc(O)nc12 | 242 to 243 |
| OC(C#Cc1ccncc1)c1ccccc1 (stereo not given) | 93 to 96 |
| COc1cc(CCc2cnc(N)nc2N)cc(OC)c1OC | 155 to 157 |
| Cc1ccc(Nc2c(N)cc(C(=O)O)cc2S(N)(=O)=O)c(C)c1 | 241 to 242 |
| O=C1C(=O)c2ccccc2C2=C1SCC1(CCN(CCCCc3ccccc3)CC1)O2 | 145 to 147 |
| O=C(O)c1ccc(COCc2csc3nc(C(=O)NCc4cccc(F)c4)[nH]c(=O)c23)cc1 | 256 to 280 |
| COC(=O)[C@H](Cc1ccc([N+](=O)[O-])cc1)NC(=O)OC(C)(C)C | 95 to 96 |
| CCCCC(C)c1cc(O)c2c(c1)OC(C)(C)CC2C1=CCN(CCc2ccccc2)CC1 (stereo not given) | 141 to 143 |
| CC(C)c1ccc(C(=O)[C@@H]2C[C@H]2c2ccccc2)c(C(C)C)c1OS(N)(=O)=O (relative stereo) | 166 to 168 |
| CCc1cc(CCc2nc3ccccc3o2)c(=O)[nH]c1CO | 155 to 156 |
| CC(C)(C)OC(=O)NC1CCN(c2c(F)cc3c(=O)c(C(=O)O)cn(C4CC4)c3c2F)C1 (stereo not given) | 239 to 240 |

| SMILES | melting point [°C] |
| --- | --- |
| CC(C)(C)OC(=O)NCCCC(c1cc(F)ccc1F)S(=O)(=O)c1ccc(Cl)cc1 (stereo not given) | 119 to 120 |
| CC(C)(C)OC(=O)N1CCC(c2nc3cc(-c4ccc(-n5cnnn5)c(F)c4)ccc3o2)CC1 | 154 to 159 |
| NC(=O)N1C(=O)C(C(=O)c2ccco2)c2ccc(F)cc21 (stereo not given) | 231 to 235 |
| CCCCCC(=O)OCc1nccc(Oc2ccc3c(C(=O)OCC)csc3c2)n1 | 51 |
| COc1ccc(CC(=O)N2CCN(C(=S)SC)CC2)c(OC)c1OC | 119 to 120 |
| O=S(=O)(NCCCCOc1ccc(-n2cnnn2)cc1)c1cccc2nsnc12 | 142 to 143 |
| O=C1CCC(N2C(=O)c3ccc(CNC(=O)c4ccc(Cl)cc4)cc3C2=O)C(=O)N1 (stereo not given) | 178 to 180 |
| Cc1c(Br)c2c(c(C)c1NC(=O)CC(C)(C)C)C(c1ccc(C(C)C)cc1)CS2 (stereo not given) | 207 to 208 |
| Cc1cc(C(=O)NCc2ccccc2)c(N)s1 | 170 |
| COC(=O)Cc1ccc2nc(C(F)(F)F)cc(O)c2c1 | 192 to 193 |
| CC(C)CCS(=O)C1=C(O)CC(C)(C)CC1=O (stereo not given) | 64.5 to 66 |
| O=C(O)CNC(=O)c1cccc(NC(=O)C(CS)Cc2ccccc2)c1 (stereo not given) | 80 to 83 |
| O=C1SC(=O)C(F)=C1F | 52 to 56 |
| COC(=O)CC1c2cc([N+](=O)[O-])ccc2N(C(C)=O)C1C (stereo not given) | 106 |
| OCC1CCC(n2cnc3cc(Cl)c(Cl)cc32)C1 (stereo not given) | 142 to 145 |
| CNC(=O)[C@@H]1C[C@@H](OCc2ccccc2)CN1S(=O)(=O)c1ccc(Cl)c(COc2cccc3c(-n4ccnc4)cc(C)nc23)c1Cl | 100 |
| CC1OC(C)C(C(=O)O)C1=O (stereo not given) | 55 to 57 |
| O=C(O)C1CNC(C(=O)O)c2[nH]c3ccccc3c21 (stereo not given) | 230 to 231 |
| N#Cc1ccc(-c2cncc(OC3SCC(O)C(O)C3O)c2)cc1C#N (stereo not given) | 192 |
| C=CCOC(=O)c1ccc(OC(=O)C2CC3=C(C2)C(C)(C)CCC3(C)C)cc1 | 48 to 50 |
| COc1cc(Nc2c(C#N)cnc3cc4cc(OCCN5CCC(O)CC5)c(OC)cc4cc23)c(Cl)cc1Cl | 193 to 198 |
| CCC1(CCCBr)C(=O)NC(=O)NC1=O | 138 to 140 |
| COC(=O)c1ccc(SC)cn1 | 71 to 73 |
| CCCc1nn(-c2ccc(C(F)(F)F)cn2)cc1CCCOc1ccc(CCC(=O)O)c(C)c1 | 124 to 126 |
| N#Cc1ccc(Oc2ccccc2)cc1Oc1ccccc1 | 85 to 86 |
